System: subjects with AK on the face or scalp
Assay: Phase 2a study KX01-AK-002: local skin reactions (grade 0 not present to 4 worst) and adverse events, 0.5 mg KX-01 on 25 cm^2
Assay type: in vivo, human
Description: An ongoing Phase 2a, open-label, multicenter, activity and safety study of KX-01 administered topically in subjects with AK on the face or scalp is described herein. […] Secondary objectives are to assess the activity of KX-01 administered topically during Days 1-57 based on reduction of AK lesion counts from baseline, assess the safety and tolerability and pharmacokinetics, and contrast the dose regimens (5-day treatment with 3-day treatment) in terms of activity and safety in subjects with AK on the face or scalp. This uncontrolled, nonrandomized trial is being conducted at 16 investigational sites in the United States. Enrollment is sequential for 2 cohorts of approximately 80 subjects each. Enrollment is closed for Cohort 1 and ongoing for Cohort 2. The two treatment cohorts are summarized below: • Cohort 1: 0.5 mg KX-01 administered topically to a contiguous treatment area of 25 cm^2 with 4-8 clinically typical AK lesions for 5 consecutive days • Cohort 2: 0.5 mg KX-01 administered topically to a contiguous treatment area of 25 cm^2 with 4-8 clinically typical AK lesions for 3 consecutive days
0.5 mg KX-01 is administered topically to an area of 25 cm^2 on the face or scalp by site staff on treatment days. […] AK lesion counts are recorded at baseline, days 8, 15, 29, and 57. […] Standardized photography of treatment area is performed at baseline, day 8 and day 57. Plasma samples are being collected at preplanned time points on days 1 and 5 for Cohort 1, and on days 1 and 3 for Cohort 2.
Absence or presence of hyperpigmentation, hypopigmentation and scarring are also assessed. Application site reactions not classified as LSRs are reported as AEs. […] LSRs and AEs are reported separately. All LSRs, pigmentation, and scarring in the treatment area will be followed to resolution or stabilization.
The range of possible composite scores is 0-24.
The Phase 2a trial described in Example 2a was completed with 84 eligible subjects enrolled in each of two cohorts: one cohort was subjected to the treatment for 5 consecutive days, and the other cohort was subjected to the treatment for 3 consecutive days. The results are described below and in FIG. 5.

O=C(Cc1ccc(-c2ccc(OCCN3CCOCC3)cc2)cn1)NCc1ccccc1 [KX-01] was tested, and the “Vesiculation/Pustulation grade 0, n/N subjects” value (Day 3, Cohort 1 (5-day)) was 67/67, the “Vesiculation/Pustulation grade 1, n/N subjects” value (Day 3, Cohort 1 (5-day)) was 0 and the “Vesiculation/Pustulation grade 2, n/N subjects” value (Day 3, Cohort 1 (5-day)) was 0. For the same molecule, the “Vesiculation/Pustulation grade 3, n/N subjects” value (Day 3, Cohort 1 (5-day)) was 0, the “Vesiculation/Pustulation grade 4, n/N subjects” value (Day 3, Cohort 1 (5-day)) was 0 and the “Crusting grade 0, n/N subjects” value (Day 4, Cohort 1 (5-day)) was 61/67. The “Crusting grade 1, n/N subjects” value (Day 4, Cohort 1 (5-day)) was 4/67, the “Crusting grade 2, n/N subjects” value (Day 4, Cohort 1 (5-day)) was 2/67 and the “Crusting grade 3, n/N subjects” value (Day 4, Cohort 1 (5-day)) was 0. For the same molecule, the “Crusting grade 4, n/N subjects” value (Day 4, Cohort 1 (5-day)) was 0, the “Erosion/Ulceration grade 0, n/N subjects” value (Day 4, Cohort 1 (5-day)) was 65/67 and the “Erosion/Ulceration grade 1, n/N subjects” value (Day 4, Cohort 1 (5-day)) was 2/67. For the same molecule, the “Erosion/Ulceration grade 2, n/N subjects” value (Day 4, Cohort 1 (5-day)) was 0, the “Erosion/Ulceration grade 3, n/N subjects” value (Day 4, Cohort 1 (5-day)) was 0 and the “Erosion/Ulceration grade 4, n/N subjects” value (Day 4, Cohort 1 (5-day)) was 0. The “Erythema grade 0, n/N subjects” value (Day 4, Cohort 1 (5-day)) was 19/67, the “Erythema grade 1, n/N subjects” value (Day 4, Cohort 1 (5-day)) was 26/67 and the “Erythema grade 2, n/N subjects” value (Day 4, Cohort 1 (5-day)) was 17/67. For the same molecule, the “Erythema grade 3, n/N subjects” value (Day 4, Cohort 1 (5-day)) was 5/67, the “Erythema grade 4, n/N subjects” value (Day 4, Cohort 1 (5-day)) was 0 and the “Flaking/Scaling grade 0, n/N subjects” value (Day 4, Cohort 1 (5-day)) was 43/67. The “Flaking/Scaling grade 1, n/N subjects” value (Day 4, Cohort 1 (5-day)) was 16/67, the “Flaking/Scaling grade 2, n/N subjects” value (Day 4, Cohort 1 (5-day)) was 5/67 and the “Flaking/Scaling grade 3, n/N subjects” value (Day 4, Cohort 1 (5-day)) was 3/67. The “Flaking/Scaling grade 4, n/N subjects” value (Day 4, Cohort 1 (5-day)) was 0, the “Swelling grade 0, n/N subjects” value (Day 4, Cohort 1 (5-day)) was 65/67 and the “Swelling grade 1, n/N subjects” value (Day 4, Cohort 1 (5-day)) was 2/67. The “Swelling grade 2, n/N subjects” value (Day 4, Cohort 1 (5-day)) was 0, the “Swelling grade 3, n/N subjects” value (Day 4, Cohort 1 (5-day)) was 0 and the “Swelling grade 4, n/N subjects” value (Day 4, Cohort 1 (5-day)) was 0. The “Vesiculation/Pustulation grade 0, n/N subjects” value (Day 4, Cohort 1 (5-day)) was 66/67, the “Vesiculation/Pustulation grade 1, n/N subjects” value (Day 4, Cohort 1 (5-day)) was 1/67 and the “Vesiculation/Pustulation grade 2, n/N subjects” value (Day 4, Cohort 1 (5-day)) was 0. The “Vesiculation/Pustulation grade 3, n/N subjects” value (Day 4, Cohort 1 (5-day)) was 0, the “Vesiculation/Pustulation grade 4, n/N subjects” value (Day 4, Cohort 1 (5-day)) was 0 and the “Crusting grade 0, n/N subjects” value (Day 5, Cohort 1 (5-day)) was 56/67. For the same molecule, the “Crusting grade 1, n/N subjects” value (Day 5, Cohort 1 (5-day)) was 9/67, the “Crusting grade 2, n/N subjects” value (Day 5, Cohort 1 (5-day)) was 2/67 and the “Crusting grade 3, n/N subjects” value (Day 5, Cohort 1 (5-day)) was 0. The “Crusting grade 4, n/N subjects” value (Day 5, Cohort 1 (5-day)) was 0, the “Erosion/Ulceration grade 0, n/N subjects” value (Day 5, Cohort 1 (5-day)) was 61/67 and the “Erosion/Ulceration grade 1, n/N subjects” value (Day 5, Cohort 1 (5-day)) was 6/67. For the same molecule, the “Erosion/Ulceration grade 2, n/N subjects” value (Day 5, Cohort 1 (5-day)) was 0, the “Erosion/Ulceration grade 3, n/N subjects” value (Day 5, Cohort 1 (5-day)) was 0 and the “Erosion/Ulceration grade 4, n/N subjects” value (Day 5, Cohort 1 (5-day)) was 0. The “Erythema grade 0, n/N subjects” value (Day 5, Cohort 1 (5-day)) was 12/67, the “Erythema grade 1, n/N subjects” value (Day 5, Cohort 1 (5-day)) was 19/67 and the “Erythema grade 2, n/N subjects” value (Day 5, Cohort 1 (5-day)) was 27/67. For the same molecule, the “Erythema grade 3, n/N subjects” value (Day 5, Cohort 1 (5-day)) was 9/67, the “Erythema grade 4, n/N subjects” value (Day 5, Cohort 1 (5-day)) was 0 and the “Flaking/Scaling grade 0, n/N subjects” value (Day 5, Cohort 1 (5-day)) was 35/67. For the same molecule, the “Flaking/Scaling grade 1, n/N subjects” value (Day 5, Cohort 1 (5-day)) was 21/67, the “Flaking/Scaling grade 2, n/N subjects” value (Day 5, Cohort 1 (5-day)) was 9/67 and the “Flaking/Scaling grade 3, n/N subjects” value (Day 5, Cohort 1 (5-day)) was 2/67. The “Flaking/Scaling grade 4, n/N subjects” value (Day 5, Cohort 1 (5-day)) was 0, the “Swelling grade 0, n/N subjects” value (Day 5, Cohort 1 (5-day)) was 58/67 and the “Swelling grade 1, n/N subjects” value (Day 5, Cohort 1 (5-day)) was 7/67. The “Swelling grade 2, n/N subjects” value (Day 5, Cohort 1 (5-day)) was 1/67, the “Swelling grade 3, n/N subjects” value (Day 5, Cohort 1 (5-day)) was 1/67 and the “Swelling grade 4, n/N subjects” value (Day 5, Cohort 1 (5-day)) was 0. For the same molecule, the “Vesiculation/Pustulation grade 0, n/N subjects” value (Day 5, Cohort 1 (5-day)) was 65/67, the “Vesiculation/Pustulation grade 1, n/N subjects” value (Day 5, Cohort 1 (5-day)) was 2/67 and the “Vesiculation/Pustulation grade 2, n/N subjects” value (Day 5, Cohort 1 (5-day)) was 0. For the same molecule, the “Vesiculation/Pustulation grade 3, n/N subjects” value (Day 5, Cohort 1 (5-day)) was 0, the “Vesiculation/Pustulation grade 4, n/N subjects” value (Day 5, Cohort 1 (5-day)) was 0 and the “Crusting grade 0, n/N subjects” value (Day 8, Cohort 1 (5-day)) was 51/67. For the same molecule, the “Crusting grade 1, n/N subjects” value (Day 8, Cohort 1 (5-day)) was 15/67, the “Crusting grade 2, n/N subjects” value (Day 8, Cohort 1 (5-day)) was 1/67 and the “Crusting grade 3, n/N subjects” value (Day 8, Cohort 1 (5-day)) was 0. For the same molecule, the “Crusting grade 4, n/N subjects” value (Day 8, Cohort 1 (5-day)) was 0, the “Erosion/Ulceration grade 0, n/N subjects” value (Day 8, Cohort 1 (5-day)) was 65/67 and the “Erosion/Ulceration grade 1, n/N subjects” value (Day 8, Cohort 1 (5-day)) was 1/67. For the same molecule, the “Erosion/Ulceration grade 2, n/N subjects” value (Day 8, Cohort 1 (5-day)) was 1/67, the “Erosion/Ulceration grade 3, n/N subjects” value (Day 8, Cohort 1 (5-day)) was 0 and the “Erosion/Ulceration grade 4, n/N subjects” value (Day 8, Cohort 1 (5-day)) was 0. The “Erythema grade 0, n/N subjects” value (Day 8, Cohort 1 (5-day)) was 14/67, the “Erythema grade 1, n/N subjects” value (Day 8, Cohort 1 (5-day)) was 24/67 and the “Erythema grade 2, n/N subjects” value (Day 8, Cohort 1 (5-day)) was 25/67. For the same molecule, the “Erythema grade 3, n/N subjects” value (Day 8, Cohort 1 (5-day)) was 4/67, the “Erythema grade 4, n/N subjects” value (Day 8, Cohort 1 (5-day)) was 0 and the “Flaking/Scaling grade 0, n/N subjects” value (Day 8, Cohort 1 (5-day)) was 26/67. For the same molecule, the “Flaking/Scaling grade 1, n/N subjects” value (Day 8, Cohort 1 (5-day)) was 18/67, the “Flaking/Scaling grade 2, n/N subjects” value (Day 8, Cohort 1 (5-day)) was 15/67 and the “Flaking/Scaling grade 3, n/N subjects” value (Day 8, Cohort 1 (5-day)) was 8/67. For the same molecule, the “Flaking/Scaling grade 4, n/N subjects” value (Day 8, Cohort 1 (5-day)) was 0, the “Swelling grade 0, n/N subjects” value (Day 8, Cohort 1 (5-day)) was 64/67 and the “Swelling grade 1, n/N subjects” value (Day 8, Cohort 1 (5-day)) was 3/67. The “Swelling grade 2, n/N subjects” value (Day 8, Cohort 1 (5-day)) was 0, the “Swelling grade 3, n/N subjects” value (Day 8, Cohort 1 (5-day)) was 0 and the “Swelling grade 4, n/N subjects” value (Day 8, Cohort 1 (5-day)) was 0. The “Vesiculation/Pustulation grade 0, n/N subjects” value (Day 8, Cohort 1 (5-day)) was 67/67, the “Vesiculation/Pustulation grade 1, n/N subjects” value (Day 8, Cohort 1 (5-day)) was 0 and the “Vesiculation/Pustulation grade 2, n/N subjects” value (Day 8, Cohort 1 (5-day)) was 0.

From US10617693B2, “Methods of treating and/or preventing actinic keratosis” (Athenex, Inc., priority 2017, dated 2020)
